# System: synchronised Plasmodium falciparum 3D7 cultures
# Experiment: In vitro flux measurements of glucose and amino acids in spent media
# Type: cell-based
# Settings: ± SD, positive = into infected red blood cell, negative = efflux into media; for flux 6 - 18 hps: early to mid-ring stage; for flux 42 - 48 hps: late schizont stage; for flux 30 - 36 hps: late trophozoite stage
# Procedure: Cultures were synchronized with 5% sorbitol ([36]). Synchronized cultures with a total volume of 18 mL at 1% parasitemia and 5% hematocrit were placed in nonvented 75 cm^2 tissue culture flasks (Nunclon). Red blood cells at 5% hematocrit were used as control. One milliliter of culture was collected at time 0 and every 6 hours until 48 hours post synchronization. The collected sample was placed in a 1.5 mL microcentrifuge tube and centrifuged at 3,000 RPM for 2 minutes. The spent media were collected and stored at −80°C prior to analysis. Three biological replicates were analyzed.
# A glucose assay on the spent media was performed using a glucose oxidase-peroxidase format assay kit (Megazyme). Amino acid concentrations in the spent media were determined using an Ultimate 3000 High-Performance Liquid Chromatography system (Dionex, UK). A ramp gradient reverse-phase chromatography was done with an Acclaim 120 C18 (Dionex, UK) 100 × 2.1 mm column (3 µm particle size, 120 Å pore size) stationary phase. Eluent A (10 mM Na2HPO4, 10 mM Na2HB4O7·10 H2O, 0.5 mM NaN3, pH 8.2) and eluent B (45% methanol [vol/vol] 45% acetonitrile [vol/vol] in water) constituted the mobile phase (Table S1).
# Samples were derivatized manually within 10 minutes prior to chromatography. The derivatization procedure was done in a 1.5 mL microcentrifuge tube at room temperature by adding the following reagents in this particular order:
# Spent media for both infected and uninfected (control) samples were assayed for glucose and amino acid concentrations as detailed above. The net metabolite flux from time 0 ( t0 ) to time n ( tn ) was calculated using the formula:
# fluxt0-tn=vt0×∆Ci-∆Cu/gDWt0×∆t
# The parasite mass gDWt0 was determined using the calculated number of parasites based on the parasitemia, hematocrit, and the volume at t0 :
# In this case, it was assumed for simplicity that each infected RBC contained only one parasite. […] Flux calculations were done to represent the three main blood stage forms: the change in concentration from t6 to t18 was used to calculate the early to mid-ring stage flux, from t30 to t36 for the late trophozoite, and from t42 to t48 for the late schizont stage. […] A positive flux represents the entry of metabolites into the model, while a negative flux represents the movement of metabolites into the external environment.
# Supplementary Table 5 Experimental glucose and amino acid flux measurements. […] A positive flux indicates movement of the metabolite into the infected red blood cell while a negative flux indicates efflux of the metabolite into the media.
SMILES,flux 6 - 18 hps,flux 42 - 48 hps,flux 30 - 36 hps
CSCC[C@H](N)C(=O)O [L-Methionine],0.0024 ± 0.0082 mmol/gDW/hr,0.028 ± 0.025 mmol/gDW/hr,-0.028 ± 0.025 mmol/gDW/hr
N[C@@H](Cc1ccc(O)cc1)C(=O)O [L-Tyrosine],-0.0051 ± 0.0044 mmol/gDW/hr,-0.046 ± 0.17 mmol/gDW/hr,-0.031 ± 0.031 mmol/gDW/hr
OC[C@H]1OC(O)[C@H](O)[C@@H](O)[C@@H]1O (stereo partly drawn) [D-Glucose],1.3 ± 0.82 mmol/gDW/hr,0.60 ± 0.21 mmol/gDW/hr,3.2 ± 1.2 mmol/gDW/hr
C[C@H](N)C(=O)O [L-Alanine],-0.023 ± 0.017 mmol/gDW/hr,0.00 ± 0.024 mmol/gDW/hr,-0.041 ± 0.036 mmol/gDW/hr
CC(C)[C@H](N)C(=O)O [L-Valine],-0.036 ± 0.098 mmol/gDW/hr,0.024 ± 0.12 mmol/gDW/hr,-0.0096 ± 0.022 mmol/gDW/hr
N[C@@H](Cc1c[nH]cn1)C(=O)O [L-Histidine],-0.0073 ± 0.013 mmol/gDW/hr,0.066 ± 0.076 mmol/gDW/hr,-0.066 ± 0.095 mmol/gDW/hr
NCCCC[C@H](N)C(=O)O [L-Lysine],0.00 ± 0.064 mmol/gDW/hr,0.073 ± 0.29 mmol/gDW/hr,0.038 ± 0.20 mmol/gDW/hr
N[C@@H](Cc1ccccc1)C(=O)O [L-Phenylalanine],-0.0099 ± 0.016 mmol/gDW/hr,0.025 ± 0.023 mmol/gDW/hr,-0.035 ± 0.0086 mmol/gDW/hr
N[C@@H](CO)C(=O)O [L-Serine],-0.019 ± 0.021 mmol/gDW/hr,0.062 ± 0.11 mmol/gDW/hr,-0.062 ± 0.091 mmol/gDW/hr
N[C@@H](CC(=O)O)C(=O)O [L-Aspartic acid],0.0048 ± 0.011 mmol/gDW/hr,0.019 ± 0.058 mmol/gDW/hr,0.00 ± 0.029 mmol/gDW/hr
N=C(N)NCCC[C@H](N)C(=O)O [L-Arginine],0.072 ± 0.11 mmol/gDW/hr,0.22 ± 0.35 mmol/gDW/hr,-0.15 ± 0.49 mmol/gDW/hr
CC[C@H](C)[C@H](N)C(=O)O [L-Isoleucine],0.017 ± 0.023 mmol/gDW/hr,0.081 ± 0.14 mmol/gDW/hr,-0.062 ± 0.14 mmol/gDW/hr
NCC(=O)O [Glycine],-0.014 ± 0.028 mmol/gDW/hr,0.037 ± 0.17 mmol/gDW/hr,-0.0093 ± 0.12 mmol/gDW/hr
N[C@@H](CCC(=O)O)C(=O)O [L-Glutamic acid],-0.019 ± 0.0081 mmol/gDW/hr,0.0047 ± 0.077 mmol/gDW/hr,-0.056 ± 0.024 mmol/gDW/hr
C[C@@H](O)[C@H](N)C(=O)O [L-Threonine],-0.014 ± 0.026 mmol/gDW/hr,0.028 ± 0.099 mmol/gDW/hr,-0.038 ± 0.050 mmol/gDW/hr
NC(=O)CC[C@H](N)C(=O)O [L-Glutamine],0.00 ± 0.023 mmol/gDW/hr,0.36 ± 0.72 mmol/gDW/hr,-0.40 ± 0.63 mmol/gDW/hr
N[C@@H](Cc1c[nH]c2ccccc12)C(=O)O [L-Tryptophan],0.0026 ± 0.0045 mmol/gDW/hr,0.010 ± 0.024 mmol/gDW/hr,0.010 ± 0.036 mmol/gDW/hr
CC(C)C[C@H](N)C(=O)O [L-Leucine],0.28 ± 0.065 mmol/gDW/hr,0.047 ± 0.10 mmol/gDW/hr,-0.14 ± 0.070 mmol/gDW/hr
NC(=O)C[C@H](N)C(=O)O [L-Asparagine],-0.0094 ± 0.011 mmol/gDW/hr,0.070 ± 0.17 mmol/gDW/hr,-0.10 ± 0.12 mmol/gDW/hr

# Source: publication PMC12588083, “Validated antimalarial drug target discovery using genome-scale metabolic modeling” (Antimicrobial Agents and Chemotherapy, 2025)
